Results taken from US7998951B2, “HCV NS5B inhibitors” (Bristol-Myers Squibb Company, priority 2007, dated 2011).

Key:
[1] = target: T1, HCV NS5B RdRp genotype 1b (Hepatitis C virus genotype 1b, UniProt Q9WMX2); assay: HCV NS5B RdRp enzyme assay (preincubation protocol); type: biochemical
T1 construct: The protein was expressed with an 18 amino acid C-terminal truncation to enhance the solubility; made in house; host or cells: E. coli BL21 (DE3)
Protocol: HCV NS5B RdRp cloning, expression, and purification. The cDNA encoding the NS5B protein of HCV, genotype 1b, was cloned into the pET21a expression vector. The protein was expressed with an 18 amino acid C-terminal truncation to enhance the solubility. The E. coli competent cell line BL21 (DE3) was used for expression of the protein. Cultures were grown at 37° C. for ˜4 hours until the cultures reached an optical density of 2.0 at 600 nm. The cultures were cooled to 20° C. and induced with 1 mM IPTG. Fresh ampicillin was added to a final concentration of 50 μg/ml and the cells were grown overnight at 20° C.
Cell pellets (3 L) were lysed for purification to yield 15-24 mgs of purified NS5B. The lysis buffer consisted of 20 mM Tris-HCl, pH 7.4, 500 mM NaCl, 0.5% triton X-100, 1 mM DTT, 1 mM EDTA, 20% glycerol, 0.5 mg/ml lysozyme, 10 mM MgCl2, 15 ug/ml deoxyribonuclease I, and Complete TM protease inhibitor tablets (Roche). After addition of the lysis buffer, frozen cell pellets were resuspended using a tissue homogenizer. To reduce the viscosity of the sample, aliquots of the lysate were sonicated on ice using a microtip attached to a Branson sonicator. The sonicated lysate was centrifuged at 100,000×g for 1 hr at 4° C. and filtered through a 0.2 μm filter unit (Corning).
The protein was purified using three sequential chromatography steps: Heparin sepharose CL-6B, polyU sepharose 4B, and Hitrap SP sepharose (Pharmacia). The chromatography buffers were identical to the lysis buffer but contained no lysozyme, deoxyribonuclease I, MgCl2 or protease inhibitor and the NaCl concentration of the buffer was adjusted according to the requirements for charging the protein onto the column. Each column was eluted with a NaCl gradient which varied in length from 5-50 column volumes depending on the column type. After the final chromatography step, the resulting purity of the enzyme is >90% based on SDS-PAGE analysis. The enzyme was aliquoted and stored at −80° C.
Standard HCV NS5B RdRp enzyme assay. HCV RdRp genotype 1b assays were run in a final volume of 60 μl in 96 well plates (Costar 3912). The assay buffer is composed of 20 mM Hepes, pH 7.5, 2.5 mM KCl, 2.5 mM MgCl2, 1 mM DTT, 1.6 U RNAse inhibitor (Promega N2515), 0.1 mg/ml BSA (Promega R3961), and 2% glycerol. All compounds were serially diluted (3-fold) in DMSO and diluted further in water such that the final concentration of DMSO in the assay was 2%. HCV RdRp genotype 1b enzyme was used at a final concentration of 28 nM. A polyA template was used at 6 nM, and a biotinylated oligo-dT12 primer was used at 180 nM final concentration. Template was obtained commercially (Amersham 27-4110). Biotinylated primer was prepared by Sigma Genosys. 3H-UTP was used at 0.6 μCi (0.29 μM total UTP). Reactions were initiated by the addition of enzyme, incubated at 30° C. for 60 min, and stopped by adding 25 μl of 50 mM EDTA containing SPA beads (4 μg/μl, Amersham RPNQ 0007). Plates were read on a Packard Top Count NXT after >1 hr incubation at room temperature.
Modified HCV NS5B RdRp enzyme assay. A modified enzyme assay was performed essentially as described for the standard enzyme assay except for the following: The biotinylated oligo dT12 primer was precaptured on streptavidin-coated SPA beads by mixing primer and beads in assay buffer and incubating at room temperature for one hour. Unbound primer was removed after centrifugation. The primer-bound beads were resuspended in 20 mM Hepes buffer, pH 7.5 and used in the assay at final concentrations of 20 nM primer and 0.67 μg/μl beads. Order of addition in the assay: enzyme (14 nM) was added to diluted compound followed by the addition of a mixture of template (0.2 nM), 3H-UTP (0.6 μCi, 0.29 μM), and primer-bound beads, to initiate the reaction; concentrations given are final. Reactions were allowed to proceed for 4 hours at 30° C.
IC50 values for compounds were determined using seven different [I]. […]

[2] = system: HCV replicon cells; assay: HCV replicon FRET assay; type: cell-based; conditions: Hepatitis C virus
From the text: FRET Assay Preparation. To perform the HCV FRET screening assay, 96-well cell culture plates were used. The FRET peptide (Anaspec, Inc.) (Taliani et al., Anal. Biochem. 1996, 240, 60-67) contains a fluorescence donor, EDANS, near one end of the peptide and an acceptor, DABCYL, near the other end. The fluorescence of the peptide is quenched by […] resonance energy transfer (RET) between the donor and the acceptor, but as the NS3 protease cleaves the peptide the products are released from RET quenching and the fluorescence of the donor becomes apparent. The assay reagent was made as follows: 5× cell Luciferase cell culture lysis reagent from Promega (#E153A) diluted to 1× with dH2O, NaCl added to 150 mM final, the FRET peptide diluted to 20 uM final from a 2 mM stock.
To prepare plates, HCV replicon cells, with or without a Renilla luciferase reporter gene, were trypsinized and placed into each well of a 96-well plate with titrated test compounds added in columns 3 through 12; columns 1 and 2 contained a control compound (HCV protease inhibitor), and the bottom row contained cells without compound. The plates were then placed in a CO2 incubator at 37° C.
Assays. Subsequent to addition of the test compounds described above (FRET Assay Preparation), at various times the plate was removed and Alamar blue solution (Trek Diagnostics, #00-100) was added per well as a measure of cellular toxicity. After reading in a Cytoflour 4000 instrument (PE Biosystems), plates were rinsed with PBS and then used for FRET assay by the addition of 30 ul of the FRET peptide assay reagent described above (FRET Assay Preparation) per well. The plate was then placed into the Cytoflour 4000 instrument which had been set to 340 excite/490 emission, automatic mode for 20 cycles and the plate read in a kinetic mode. Typically, the signal to noise using an endpoint analysis after the reads was at least three-fold. Alternatively, after Alamar blue reading, plates were rinsed with PBS, 50 ul of DMEM (high glucose) without phenol red was added and plates were then used for luciferase assay using the Promega Dual-Glo Luciferase Assay System.
Compound analysis was determined by quantification of the relative HCV replicon inhibition and the relative cytotoxicity values. To calculate cytoxicity values, the average Alamar Blue fluorescence signals from the control wells were set as 100% non-toxic. The individual signals in each of the compound test wells were then divided by the average control signal and multiplied by 100% to determine […]. To calculate the HCV replicon inhibition values, an average background value was obtained from the two wells containing the highest amount of HCV protease inhibitor at the end of the assay period. These numbers were similar to those obtained from naïve Huh-7 cells.
The background numbers were then subtracted from the average signal obtained from the control wells and this number was used as 100% activity. The individual signals in each of the compound test wells were then divided by the averaged control values after background subtraction and multiplied by 100% to determine percent activity. EC50 values for a protease inhibitor titration were calculated as the concentration which caused a 50% reduction in FRET or luciferase activity. The two numbers generated for the compound plate, percent cytotoxicity and percent activity were used to determine compounds of interest for further analysis.

T1 sequence (Q9WMX2 2420-2992): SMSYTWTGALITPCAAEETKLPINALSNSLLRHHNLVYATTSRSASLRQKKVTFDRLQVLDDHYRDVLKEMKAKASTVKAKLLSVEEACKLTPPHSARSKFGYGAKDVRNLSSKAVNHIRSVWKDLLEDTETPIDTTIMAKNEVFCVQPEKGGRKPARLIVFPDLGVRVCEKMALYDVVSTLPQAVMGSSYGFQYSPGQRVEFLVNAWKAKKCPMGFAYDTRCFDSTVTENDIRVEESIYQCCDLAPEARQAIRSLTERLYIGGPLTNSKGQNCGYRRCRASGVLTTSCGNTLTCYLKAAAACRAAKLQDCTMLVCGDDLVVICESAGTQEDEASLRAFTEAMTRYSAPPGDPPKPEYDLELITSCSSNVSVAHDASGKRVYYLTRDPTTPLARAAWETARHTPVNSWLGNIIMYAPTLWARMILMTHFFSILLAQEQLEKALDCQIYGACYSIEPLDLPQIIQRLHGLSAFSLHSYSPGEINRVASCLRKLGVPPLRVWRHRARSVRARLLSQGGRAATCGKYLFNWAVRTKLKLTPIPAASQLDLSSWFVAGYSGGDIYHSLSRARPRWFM

Compound	IC50 [1]	EC50 [2]
COc1ccc(-c2c(C3CCCCC3)c3ccc(C(=O)O)c4c3n2CCO4)cc1	30 to 1000 nM	1000 to 10000 nM
COC(=O)c1ccc2c(C3CCCCC3)c(-c3ccccc3)n3c2c1CCC3C(=O)N1CCOCC1 (stereo not drawn)	> 1000 nM	> 120 nM
CCOC(=O)/C=C/c1ccc(NC(=O)C2(NC(=O)c3ccc4c(C5CCCCC5)c(-c5ccc(OC)cc5)n5c4c3OCC5)CCCC2)cc1	30 to 1000 nM	> 1000 nM
O=C(O)/C=C/c1ccc(NC(=O)C2(NC(=O)c3ccc4c(C5CCCCC5)c(-c5ccccc5)n5c4c3CCC5C(=O)N3CCOCC3)CCCC2)cc1 (stereo not drawn)	30 to 1000 nM	1000 to 10000 nM
CCOC(=O)/C=C/c1ccc(NC(=O)C2(NC(=O)c3ccc4c(C5CCCCC5)c(-c5ccccc5)n5c4c3OCC5)CCCC2)cc1	30 to 1000 nM	> 1000 nM
O=C(O)c1ccc2c(C3CCCCC3)c(-c3ccccc3)n3c2c1CCC3C(=O)N1CCOCC1 (stereo not drawn)	30 to 1000 nM	30 to 1000 nM
COC(=O)c1ccc2c(C3CCCCC3)c(-c3ccccc3)n3c2c1C=CCC3	> 10000 nM	> 120 nM
COC(=O)c1ccc2c(C3CCCCC3)c(-c3ccccc3)n3c2c1OC(C(=O)OC)C3 (stereo not drawn)	> 1000 nM	> 1000 nM
COC(=O)c1ccc2c(C3CCCCC3)c(-c3ccccc3)n3c2c1CCC3	> 10000 nM	> 120 nM
COC(=O)c1ccc2c(C3CCCCC3)c(-c3ccccc3)n3c2c1CCC3C(=O)OC (stereo not drawn)	> 10000 nM	> 1000 nM
CN(C)S(=O)(=O)NC(=O)c1ccc2c(C3CCCCC3)c(-c3ccccc3)n3c2c1OCC3	1000 to 10000 nM	1000 to 10000 nM
O=C(O)c1ccc2c(C3CCCCC3)c(-c3ccccc3)n3c2c1OCC3	30 to 1000 nM	1000 to 10000 nM
C[C@@H]1CN(C(=O)C2CCc3c(C(=O)O)ccc4c(C5CCCCC5)c(-c5ccccc5)n2c34)C[C@H](C)O1 (stereo partly drawn)	> 1000 nM	1000 to 10000 nM
O=C(O)c1ccc2c(C3CCCCC3)c(-c3ccccc3)n3c2c1CCCC3	> 1000 nM	> 1000 nM
COC(=O)c1ccc2c(C3CCCCC3)c(-c3ccccc3)n3c2c1CCC3C(=O)O (stereo not drawn)	> 1000 nM	> 120 nM
CCOC(=O)/C=C/c1ccc(NC(=O)C2(NC(=O)c3ccc4c(C5CCCCC5)c(-c5ccccc5)n5c4c3CCC5C(=O)N3CCOCC3)CCCC2)cc1 (stereo not drawn)	1000 to 10000 nM	30 to 1000 nM
O=C(NS(=O)(=O)C1CC1)c1ccc2c(C3CCCCC3)c(-c3ccccc3)n3c2c1CCC3C(=O)N1CCOCC1 (stereo not drawn)	1000 to 10000 nM	> 10000 nM
O=C(O)/C=C/c1ccc(NC(=O)C2(NC(=O)c3ccc4c(C5CCCCC5)c(-c5ccccc5)n5c4c3OCC5)CCCC2)cc1	30 to 1000 nM	30 to 1000 nM
O=C(O)/C=C\c1ccc(NC(=O)C2(NC(=O)c3ccc4c(C5CCCCC5)c(-c5ccccc5)n5c4c3OCC5)CCCC2)cc1	30 to 1000 nM	30 to 1000 nM
CN(C)S(=O)(=O)NC(=O)c1ccc2c(C3CCCCC3)c(-c3ccccc3)n3c2c1CCC3C(=O)N1CCOCC1 (stereo not drawn)	1000 to 10000 nM	1000 to 10000 nM
COc1ccc(-c2c(C3CCCCC3)c3ccc(C(=O)NC4(C(=O)Nc5ccc(C=CC(=O)O)cc5)CCCC4)c4c3n2CCO4)cc1	30 to 1000 nM	30 to 1000 nM
COC(=O)c1ccc2c(C3CCCCC3)c(-c3ccccc3)n3c2c1OCC3	1000 to 10000 nM	> 120 nM
O=C(O)c1ccc2c(C3CCCCC3)c(-c3ccccc3)n3c2c1C=CCC3	> 1000 nM	> 1000 nM
O=C(O)c1ccc2c(C3CCCCC3)c(-c3ccccc3)n3c2c1CCC3C(=O)O (stereo not drawn)	> 1000 nM	> 10000 nM
